In US20020146741A1, “Processes for receptpor screening” (priority 2000, published 2002):

Legend:
GR [1] = target: T1, GR (Homo sapiens, UniProt P04150); test: FP-based competitive ligand binding assay; set-up: GR was produced as a full length protein in insect cells and partially purified using ion exchange chromatography; made in house; host or cells: insect cells (baculovirus); details: for Ki: GR 4 nM, fluorescein-dexamethasone probe, 1-hour incubation at room temperature; for RBA: relative binding affinity, dexamethasone = 100
T1 sequence (P04150 1-777): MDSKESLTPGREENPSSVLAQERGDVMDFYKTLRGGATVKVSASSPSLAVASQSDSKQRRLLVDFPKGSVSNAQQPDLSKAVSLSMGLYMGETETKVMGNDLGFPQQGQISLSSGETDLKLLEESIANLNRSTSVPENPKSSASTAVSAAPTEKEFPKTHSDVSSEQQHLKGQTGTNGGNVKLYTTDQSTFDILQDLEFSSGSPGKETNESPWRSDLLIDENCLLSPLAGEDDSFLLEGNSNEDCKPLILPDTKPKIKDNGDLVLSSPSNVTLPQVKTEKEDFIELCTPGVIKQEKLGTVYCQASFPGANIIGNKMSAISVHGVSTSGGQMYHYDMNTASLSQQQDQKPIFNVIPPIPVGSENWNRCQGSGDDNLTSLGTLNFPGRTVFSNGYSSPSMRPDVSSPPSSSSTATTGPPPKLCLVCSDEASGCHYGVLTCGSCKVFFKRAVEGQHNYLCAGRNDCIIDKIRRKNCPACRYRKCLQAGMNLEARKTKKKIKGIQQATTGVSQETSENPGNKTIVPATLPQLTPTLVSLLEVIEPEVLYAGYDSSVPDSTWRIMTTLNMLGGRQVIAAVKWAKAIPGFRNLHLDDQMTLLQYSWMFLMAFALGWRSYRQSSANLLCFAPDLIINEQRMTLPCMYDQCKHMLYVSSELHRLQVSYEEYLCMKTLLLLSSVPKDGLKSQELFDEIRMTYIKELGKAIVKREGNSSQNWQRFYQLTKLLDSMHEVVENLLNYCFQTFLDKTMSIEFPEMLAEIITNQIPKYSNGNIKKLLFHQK
Protocol: FIG. 3A and B are graphs showing FP-based competition assays with recombinant GR (A) and PR-LBD (B). Serial dilutions of test steroids were prepared. […] Final incubation conditions were similar to those described in FIG. 3. The final concentration of GR used was 4 nM, and for PR-LBD it was 8 nM. After a 1-hour incubation at room temperature, the fluorescence polarization of each well was read, using wells lacking fluor as blanks.
The other criteria used for validating a fluorescent steroid conjugate is the ability of known receptor ligands to compete with the fluor for binding to the receptor.

GR [2] = target: T1, GR; details: literature RBA, dexamethasone = 100; cited from earlier work

Compound	Ki (GR [1]) [nM]	RBA (GR [1])	Literature Value (GR [2])
CC(=O)OCC(=O)[C@@]12OC3(CCCC3)O[C@@H]1C[C@H]1[C@@H]3CCC4=CC(=O)C=C[C@]4(C)[C@@]3(F)[C@@H](O)C[C@@]12C [Amcinonide]	1.9	40	–
C[C@]12CCC(=O)C=C1CC[C@@H]1[C@@H]2[C@@H](O)C[C@@]2(C)[C@H]1CC[C@]2(O)C(=O)CO [Cortisol]	–	24	33
CC1(C)O[C@@H]2C[C@H]3[C@@H]4C[C@H](F)C5=CC(=O)C=C[C@]5(C)[C@H]4[C@@H](O)C[C@]3(C)[C@]2(C(=O)CO)O1 [Flunisolide]	1	73	100
CC(=O)OCC(=O)[C@@]12OC(C)(C)O[C@@H]1C[C@H]1[C@@H]3C[C@H](F)C4=CC(=O)C=C[C@]4(C)[C@@]3(F)[C@@H](O)C[C@@]12C [Fluocinonide]	4.4	17	–
CC1(C)O[C@@H]2C[C@H]3[C@@H]4CCC5=CC(=O)C=C[C@]5(C)[C@@]4(F)[C@@H](O)C[C@]3(C)[C@]2(C(=O)CO)O1 [Triamcinolone acetonide]	0.9	–	–
